Reference: patent publication US20070167492A1, “Molluscicidal agents” (priority 2003, published 2007)

How the values were obtained:
[1] = test system: Winter wheat (Kampa race) seeds; assay: Seed germination test of treated winter wheat seeds (rolled in paper); type: in vivo; settings: 3x50 seeds, 6 days at 22° C.
Procedure, shortened: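 Seeds were disinfected with fludioxonil-containing Beret Gold (2 ml per kg seed) and coated with Sepiret® for formulations unsuitable for coating. Germination of 3×50 seeds rolled in paper was scored after 6 days at continuous 22° C. under a 16 hours light regime.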

[2] = test system: Deroceras reticulatum (grey field slug); assay: Example 1: pot test, treated winter wheat seed with 5 adult slugs per pot, 14 days; type: in vivo
Procedure, shortened: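 Fludioxonil-disinfected winter wheat seed (Kampa, 40 per pot) sown on quartz sand over potting soil with 5 adult slugs per pot; ±15° C., ±90% RH, 12 h light/12 h dark, 4 replicates. Damaged seeds, plants, dead slugs and fecal pellets counted up to day 14; F-tests and Student-tests.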

[3] = 2 ml formulated per kg seed, 2 days after sowing
[4] = 2 ml formulated per kg seed, 3 days after sowing
[5] = 2 ml formulated per kg seed, 7 days after sowing
[6] = 2 ml formulated per kg seed, 10 days after sowing
[7] = 2 ml formulated per kg seed, 14 days after sowing
[8] = 4 ml formulated per kg seed, 2 days after sowing
[9] = 4 ml formulated per kg seed, 3 days after sowing
[10] = 4 ml formulated per kg seed, 7 days after sowing
[11] = 4 ml formulated per kg seed, 10 days after sowing
[12] = 4 ml formulated per kg seed, 14 days after sowing
[13] = 10 ml formulated per kg seed, 2 days after sowing
[14] = 10 ml formulated per kg seed, 3 days after sowing
[15] = 10 ml formulated per kg seed, 7 days after sowing
[16] = 10 ml formulated per kg seed, 10 days after sowing
[17] = 10 ml formulated per kg seed, 14 days after sowing

O=CC=Cc1ccccc1 [cinnamaldehyde]
Percentage germinated ([1]; 2 ml formulated per kg seed): 25% | Percentage germinated ([1]; 4 ml formulated per kg seed): 0% | Percentage germinated ([1]; 10 ml formulated per kg seed): 0% | number of utilizable plants after 14 days ([2]; 2 ml formulated per kg seed): 6.8 | percentage of damaged seeds after 14 days ([2]; 2 ml formulated per kg seed): 64% | Mean number of damaged seeds per pot [2, 3]: 2.0 | Mean number of dead slugs per pot [2, 3]: 0 | Mean number fecal pellets per pot [2, 4]: 47 | Mean number of damaged seeds per pot [2, 4]: 5.5 | Mean number of dead slugs per pot [2, 4]: 1.3 | Mean number of plants present per pot [2, 4]: 3.3 | Mean number fecal pellets per pot [2, 5]: 71 | Mean number of damaged seeds per pot [2, 5]: 24.5 | Mean number of dead slugs per pot [2, 5]: 1.3 | Mean number of plants present per pot [2, 5]: 5.0 | Mean number fecal pellets per pot [2, 6]: 80 | Mean number of damaged seeds per pot [2, 6]: 24.8 | Mean number of dead slugs per pot [2, 6]: 1.3 | Mean number of plants present per pot [2, 6]: 6.8 | Mean number fecal pellets per pot [2, 7]: 95 | Mean number of damaged seeds per pot [2, 7]: 25.8 | Mean number of dead slugs per pot [2, 7]: 1.8 | Mean number of plants present per pot [2, 7]: 6.8 | number of utilizable plants after 14 days ([2]; 4 ml formulated per kg seed): 0.5 | percentage of damaged seeds after 14 days ([2]; 4 ml formulated per kg seed): 73% | Mean number of damaged seeds per pot [2, 8]: 3.3 | Mean number of dead slugs per pot [2, 8]: 0 | Mean number fecal pellets per pot [2, 9]: 46 | Mean number of damaged seeds per pot [2, 9]: 6.5 | Mean number of dead slugs per pot [2, 9]: 0 | Mean number of plants present per pot [2, 9]: 3.0 | Mean number fecal pellets per pot [2, 10]: 111 | Mean number of damaged seeds per pot [2, 10]: 26.5 | Mean number of dead slugs per pot [2, 10]: 0.3 | Mean number of plants present per pot [2, 10]: 1.3 | Mean number fecal pellets per pot [2, 11]: 152 | Mean number of damaged seeds per pot [2, 11]: 27.0 | Mean number of dead slugs per pot [2, 11]: 0.3 | Mean number of plants present per pot [2, 11]: 1.8 | Mean number fecal pellets per pot [2, 12]: 160 | Mean number of damaged seeds per pot [2, 12]: 29.0 | Mean number of dead slugs per pot [2, 12]: 0.8 | Mean number of plants present per pot [2, 12]: 0.8 | number of utilizable plants after 14 days ([2]; 10 ml formulated per kg seed): 0.5 | percentage of damaged seeds after 14 days ([2]; 10 ml formulated per kg seed): 37% | Mean number of damaged seeds per pot [2, 13]: 4.0 | Mean number of dead slugs per pot [2, 13]: 0 | Mean number fecal pellets per pot [2, 14]: 54 | Mean number of damaged seeds per pot [2, 14]: 7.0 | Mean number of dead slugs per pot [2, 14]: 1.3 | Mean number of plants present per pot [2, 14]: 5.0 | Mean number fecal pellets per pot [2, 15]: 58 | Mean number of damaged seeds per pot [2, 15]: 10.3 | Mean number of dead slugs per pot [2, 15]: 1.3 | Mean number of plants present per pot [2, 15]: 0.3 | Mean number fecal pellets per pot [2, 16]: 77 | Mean number of damaged seeds per pot [2, 16]: 10.3 | Mean number of dead slugs per pot [2, 16]: 1.3 | Mean number of plants present per pot [2, 16]: 0.5 | Mean number fecal pellets per pot [2, 17]: 93 | Mean number of damaged seeds per pot [2, 17]: 14.8 | Mean number of dead slugs per pot [2, 17]: 1.3 | Mean number of plants present per pot [2, 17]: 0.8 | dead slugs relative to the untreated seed ([2]; Example 1, 2 or 10 ml per kg of seed, 3 days after the start): significantly more dead slugs | damaged seeds relative to the untreated seed ([2]; Example 1, all dosages (2, 4, 10 ml/kg), after 3 and 7 days): significantly less damaged seeds | protection / slug controlling effect (conclusion) ([2]; Example 1, winter wheat seed treatment, dosages tested): no protection to the plant
